pIC50: −log10 of the molar value.
Key:
Assay in all cases: cells
[1] = tested on: HT-1080; type: functional, cell-based; settings: Homo sapiens
Description: SANGER: Inhibition of human HT-1080 cell growth in a cell viability assay.

[2] = tested on: PFSK-1; type: functional, cell-based; settings: Homo sapiens;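 note: cell viability assay measuring how strongly compounds suppress growth of human PFSK-1 cells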
Description: SANGER: Inhibition of human PFSK-1 cell growth in a cell viability assay.

[3] = tested on: Ca9-22; type: functional, cell-based; settings: Homo sapiens;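 note: growth inhibition of Ca9-22 cells, read out with a cell viability assay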
Description: SANGER: Inhibition of human Ca9-22 cell growth in a cell viability assay.

[4] = tested on: NCI-H1793; type: functional, cell-based; settings: Homo sapiens;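 note: cell growth inhibition, read out by a cell viability assay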
Description: SANGER: Inhibition of human NCI-H1793 cell growth in a cell viability assay.

[5] = tested on: NCI-H716; type: functional, cell-based, Homo sapiens; settings: Homo sapiens, NCI-H716;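 note: growth inhibition of human NCI-H716 cells, measured by a cell viability assay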
Description: SANGER: Inhibition of human NCI-H716 cell growth in a cell viability assay.

[6] = tested on: SK-LU-1; type: functional, cell-based; settings: Homo sapiens;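 note: cell viability assay measuring growth inhibition of human SK-LU-1 cells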
Description: SANGER: Inhibition of human SK-LU-1 cell growth in a cell viability assay.

[7] = tested on: MKN-45; type: functional, cell-based; settings: Homo sapiens;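 note: growth inhibition of human MKN-45 cells, measured with a cell viability assay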
Description: SANGER: Inhibition of human MKN45 cell growth in a cell viability assay.

[8] = tested on: BFTC-909; type: functional, cell-based; settings: Homo sapiens
Description: SANGER: Inhibition of human BFTC-909 cell growth in a cell viability assay.

[9] = tested on: CA46; type: functional, cell-based, Homo sapiens; settings: Homo sapiens, CA46;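 note: growth inhibition of human CA46 cells, read out by a cell viability assay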
Description: SANGER: Inhibition of human CA46 cell growth in a cell viability assay.

[10] = tested on: Calu-3; type: functional, cell-based; settings: Homo sapiens;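 note: growth inhibition of human Calu-3 cells, determined with a cell viability assay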
Description: SANGER: Inhibition of human Calu-3 cell growth in a cell viability assay.

[11] = tested on: NCI-H1755; type: functional, cell-based; settings: Homo sapiens;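 note: cell viability readout used to measure growth inhibition of NCI-H1755 cells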
Description: SANGER: Inhibition of human NCI-H1755 cell growth in a cell viability assay.

[12] = tested on: Detroit 562; type: functional, cell-based; settings: Homo sapiens;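 note: growth inhibition of human Detroit 562 cells, read out by a cell viability assay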
Description: SANGER: Inhibition of human Detroit562 cell growth in a cell viability assay.

[13] = tested on: S-117; type: functional, cell-based; settings: Homo sapiens
Description: SANGER: Inhibition of human S-117 cell growth in a cell viability assay.

[14] = tested on: HTC-C3; type: functional, cell-based; settings: Homo sapiens;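 note: inhibition of cell growth, read out with a cell viability assay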
Description: SANGER: Inhibition of human HTC-C3 cell growth in a cell viability assay.

[15] = tested on: UACC-812; type: functional, cell-based; settings: Homo sapiens
Description: SANGER: Inhibition of human UACC-812 cell growth in a cell viability assay.

[16] = tested on: NCI-H2228; type: functional, cell-based; settings: Homo sapiens;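 note: growth inhibition of human NCI-H2228 cells, read out by a cell viability assay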
Description: SANGER: Inhibition of human NCI-H2228 cell growth in a cell viability assay.

[17] = tested on: RERF-LC-MS; type: functional, cell-based; settings: Homo sapiens;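 note: growth inhibition of human RERF-LC-MS cells, read out by a cell viability assay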
Description: SANGER: Inhibition of human RERF-LC-MS cell growth in a cell viability assay.

[18] = tested on: AGS; type: functional, cell-based; settings: Homo sapiens;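 note: growth inhibition of AGS cells, determined with a cell viability assay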
Description: SANGER: Inhibition of human AGS cell growth in a cell viability assay.

[19] = tested on: SK-MEL-24; type: functional, cell-based; settings: Homo sapiens;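 note: growth inhibition read out by a cell viability assay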
Description: SANGER: Inhibition of human SK-MEL-24 cell growth in a cell viability assay.

[20] = tested on: NCI-H2009; type: functional, cell-based; settings: Homo sapiens;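 note: cell viability assay measuring inhibition of NCI-H2009 cell growth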
Description: SANGER: Inhibition of human NCI-H2009 cell growth in a cell viability assay.

[21] = tested on: ASPC1; type: functional, cell-based; settings: Homo sapiens;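 note: growth inhibition of AsPC-1 cells, read out with a cell viability assay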
Description: SANGER: Inhibition of human AsPC-1 cell growth in a cell viability assay.

[22] = tested on: CAL-85-1; type: functional, cell-based; settings: Homo sapiens;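 note: growth inhibition of human CAL-85-1 cells, read out with a cell viability assay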
Description: SANGER: Inhibition of human CAL-85-1 cell growth in a cell viability assay.

[23] = tested on: NCI-H1437; type: functional, cell-based; settings: Homo sapiens;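 note: growth inhibition of human NCI-H1437 cells, read out by a cell viability assay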
Description: SANGER: Inhibition of human NCI-H1437 cell growth in a cell viability assay.

[24] = tested on: COR-L23; type: functional, cell-based; settings: Homo sapiens;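 note: cell viability assay measuring how strongly compounds suppress growth of COR-L23 cells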
Description: SANGER: Inhibition of human COR-L23 cell growth in a cell viability assay.

[25] = tested on: IST-SL2; type: functional, cell-based, Homo sapiens; settings: Homo sapiens, IST-SL2;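 note: growth inhibition of human IST-SL2 cells, read out by a cell viability assay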
Description: SANGER: Inhibition of human IST-SL2 cell growth in a cell viability assay.

[26] = tested on: GDM-1; type: functional, cell-based, Homo sapiens; settings: Homo sapiens, GDM-1; read-out: IC50;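 note: cell viability readout used to measure growth inhibition of human GDM-1 cells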
Description: SANGER: Inhibition of human GDM-1 cell growth in a cell viability assay.

[27] = tested on: NCI-H1703; type: functional, cell-based; settings: Homo sapiens;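 note: growth inhibition of NCI-H1703 cells, read out via a cell viability assay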
Description: SANGER: Inhibition of human NCI-H1703 cell growth in a cell viability assay.

[28] = tested on: CAL-120; type: functional, cell-based; settings: Homo sapiens;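 note: cell growth inhibition, read out as cell viability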
Description: SANGER: Inhibition of human CAL-120 cell growth in a cell viability assay.

[29] = tested on: NCI-H64; type: functional, cell-based, Homo sapiens; settings: Homo sapiens, NCI-H64;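 note: growth inhibition of NCI-H64 cells, read out with a cell viability assay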
Description: SANGER: Inhibition of human NCI-H64 cell growth in a cell viability assay.

[30] = tested on: T98G; type: functional, cell-based; settings: Homo sapiens;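 note: growth inhibition of T98G cells, read out by a cell viability assay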
Description: SANGER: Inhibition of human T98G cell growth in a cell viability assay.

[31] = tested on: KYSE-180; type: functional, cell-based; settings: Homo sapiens;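 note: growth inhibition of KYSE-180 cells, read out with a cell viability assay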
Description: SANGER: Inhibition of human KYSE-180 cell growth in a cell viability assay.

[32] = tested on: RPMI-2650; type: functional, cell-based; settings: Homo sapiens
Description: SANGER: Inhibition of human RPMI-2650 cell growth in a cell viability assay.

[33] = tested on: A673; type: functional, cell-based; settings: Homo sapiens;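 note: growth inhibition of human A673 cells, read out through a cell viability assay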
Description: SANGER: Inhibition of human A673 cell growth in a cell viability assay.

[34] = tested on: HMV-2 cell line; type: functional, cell-based; settings: Homo sapiens;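 note: growth inhibition of HMV-II cells, read out with a cell viability assay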
Description: SANGER: Inhibition of human HMV-II cell growth in a cell viability assay.

[35] = tested on: BFTC-905; type: functional, cell-based; settings: Homo sapiens
Description: SANGER: Inhibition of human BFTC-905 cell growth in a cell viability assay.

[36] = tested on: SW13; type: functional, cell-based; settings: Homo sapiens;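 note: IC50 is inhibition of SW13 cell growth, read out with a cell viability assay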
Description: SANGER: Inhibition of human SW13 cell growth in a cell viability assay.

[37] = tested on: EHEB; type: functional, cell-based; settings: Homo sapiens;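 note: growth inhibition of human EHEB cells, read out with a cell viability assay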
Description: SANGER: Inhibition of human EHEB cell growth in a cell viability assay.

[38] = tested on: RD; type: functional, cell-based; settings: Homo sapiens
Description: SANGER: Inhibition of human RD cell growth in a cell viability assay.

[39] = tested on: HSC-3; type: functional, cell-based; settings: Homo sapiens
Description: SANGER: Inhibition of human HSC-3 cell growth in a cell viability assay.

[40] = tested on: HT-3; type: functional, cell-based; settings: Homo sapiens;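 note: growth inhibition measured with a cell viability readout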
Description: SANGER: Inhibition of human HT-3 cell growth in a cell viability assay.

[41] = tested on: NCI-H2030; type: functional, cell-based; settings: Homo sapiens;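 note: growth inhibition of human NCI-H2030 cells, read out by a cell viability assay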
Description: SANGER: Inhibition of human NCI-H2030 cell growth in a cell viability assay.

[42] = tested on: KMOE-2; type: functional, cell-based, Homo sapiens; settings: Homo sapiens, KMOE-2;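 note: growth inhibition of human KMOE-2 cells, read out with a cell viability assay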
Description: SANGER: Inhibition of human KMOE-2 cell growth in a cell viability assay.

[43] = tested on: RO82-W-1; type: functional, cell-based; settings: Homo sapiens;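 note: growth inhibition of human RO82-W-1 cells, measured with a cell viability assay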
Description: SANGER: Inhibition of human RO82-W-1 cell growth in a cell viability assay.

[44] = tested on: EFM-19; type: functional, cell-based; settings: Homo sapiens;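 note: growth inhibition of human EFM-19 cells, measured in a cell viability assay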
Description: SANGER: Inhibition of human EFM-19 cell growth in a cell viability assay.

[45] = tested on: D-542MG; type: functional, cell-based; settings: Homo sapiens
Description: SANGER: Inhibition of human D-542MG cell growth in a cell viability assay.

[46] = tested on: BC-3; type: functional, cell-based, Homo sapiens; settings: Homo sapiens, BC-3;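 note: cell viability assay measuring growth inhibition of human BC-3 cells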
Description: SANGER: Inhibition of human BC-3 cell growth in a cell viability assay.

[47] = tested on: Daoy; type: functional, cell-based; settings: Homo sapiens;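 note: daoy cell growth inhibition, read out as cell viability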
Description: SANGER: Inhibition of human Daoy cell growth in a cell viability assay.

[48] = tested on: SNU-387; type: functional, cell-based; settings: Homo sapiens
Description: SANGER: Inhibition of human SNU-387 cell growth in a cell viability assay.

[49] = tested on: HGC-27; type: functional, cell-based; settings: Homo sapiens;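 note: growth inhibition of human HGC-27 cells, read out in a cell viability assay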
Description: SANGER: Inhibition of human HGC-27 cell growth in a cell viability assay.

[50] = tested on: CAPAN-1; type: functional, cell-based; settings: Homo sapiens;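 note: growth suppression of CAPAN-1 cells, read out by a cell viability assay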
Description: SANGER: Inhibition of human CAPAN-1 cell growth in a cell viability assay.

[51] = tested on: SW1417; type: functional, cell-based; settings: Homo sapiens;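 note: growth inhibition of human SW1417 cells, read out with a cell viability assay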
Description: SANGER: Inhibition of human SW1417 cell growth in a cell viability assay.

[52] = tested on: DBTRG-05MG; type: functional, cell-based; settings: Homo sapiens;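 note: cell viability assay measuring growth inhibition of human DBTRG-05MG cells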
Description: SANGER: Inhibition of human DBTRG-05MG cell growth in a cell viability assay.

[53] = tested on: SW626; type: functional, cell-based; settings: Homo sapiens;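 note: growth inhibition of SW626 cells, measured with a cell viability assay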
Description: SANGER: Inhibition of human SW626 cell growth in a cell viability assay.

[54] = tested on: HN; type: functional, cell-based; settings: Homo sapiens
Description: SANGER: Inhibition of human HN cell growth in a cell viability assay.

[55] = tested on: MeWo; type: functional, cell-based; settings: Homo sapiens;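 note: growth inhibition of MeWo cells, determined by a cell viability readout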
Description: SANGER: Inhibition of human Mewo cell growth in a cell viability assay.

[56] = tested on: NCI-H2347; type: functional, cell-based; settings: Homo sapiens;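 note: growth inhibition of the cell line, read out with a cell viability assay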
Description: SANGER: Inhibition of human NCI-H2347 cell growth in a cell viability assay.

[57] = tested on: Raji; type: functional, cell-based, Homo sapiens; settings: Homo sapiens, Raji;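 note: cell viability assay measuring inhibition of Raji cell growth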
Description: SANGER: Inhibition of human Raji cell growth in a cell viability assay.

[58] = tested on: MG-63; type: functional, cell-based; settings: Homo sapiens;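 note: growth inhibition of human MG-63 cells, read out with a cell viability assay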
Description: SANGER: Inhibition of human MG-63 cell growth in a cell viability assay.

Structure (SMILES): C/C(=C\c1csc(C)n1)[C@@H]1C[C@@H]2O[C@]2(C)CCC[C@H](C)[C@H](O)[C@@H](C)C(=O)C(C)(C)[C@@H](O)CC(=O)O1 [PATUPILONE]
- pIC50 [1]: 9.07
- pIC50 [2]: 7.88
- pIC50 [3]: 8.95
- pIC50 [4]: 7.68
- pIC50 [5]: < 7.49
- pIC50 [6]: 9.06
- pIC50 [7]: 8.36
- pIC50 [8]: 8.81
- pIC50 [9]: 8.02
- pIC50 [10]: 8.77
- pIC50 [11]: < 7.49
- pIC50 [12]: 8.85
- pIC50 [13]: < 7.49
- pIC50 [14]: 8.53
- pIC50 [15]: < 7.49
- pIC50 [16]: 9.33
- pIC50 [17]: 7.61
- pIC50 [18]: 8.59
- pIC50 [19]: < 7.49
- pIC50 [20]: 9.06
- pIC50 [21]: < 7.49
- pIC50 [22]: 9.18
- pIC50 [23]: 9.16
- pIC50 [24]: 8.87
- pIC50 [25]: 8.15
- pIC50 [26]: 8.37
- pIC50 [27]: 8.11
- pIC50 [28]: 7.99
- pIC50 [29]: 8.08
- pIC50 [30]: 7.70
- pIC50 [31]: 9.22
- pIC50 [32]: 8.68
- pIC50 [33]: 8.61
- pIC50 [34]: 9.40
- pIC50 [35]: 10.30
- pIC50 [36]: 8.30
- pIC50 [37]: 7.54
- pIC50 [38]: 8.35
- pIC50 [39]: 9.10
- pIC50 [40]: 7.82
- pIC50 [41]: 9.16
- pIC50 [42]: < 7.49
- pIC50 [43]: < 7.49
- pIC50 [44]: 7.97
- pIC50 [45]: < 7.49
- pIC50 [46]: 8.08
- pIC50 [47]: > 9.90
- pIC50 [48]: 8.25
- pIC50 [49]: 9.47
- pIC50 [50]: 8.40
- pIC50 [51]: < 7.49
- pIC50 [52]: 8.23
- pIC50 [53]: 8.70
- pIC50 [54]: < 7.49
- pIC50 [55]: < 7.49
- pIC50 [56]: < 7.49
- pIC50 [57]: < 7.49
- pIC50 [58]: 9.78
